# In PubChem BioAssay (NCI):
#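 Dose response: 5 concentrations. Exposure: 48 h. Format: 96-well plates. Endpoint: linear interpolation; highest concentration if not reached. GI50 is the concentration that inhibits growth by half. TGI is the concentration that stops growth completely.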
# Columns and labels:
# Test in all cases: NCI-60 cell line screen, 48 h
# [1] = system: UACC-257 melanoma
# [2] = system: OVCAR-8 ovarian
# [3] = system: HL-60(TB) leukemia
# [4] = system: A549 NSCLC
# [5] = system: K-562 leukemia
# [6] = system: HT29 colon
# [7] = system: LOX IMVI melanoma
# [8] = system: SNB-19 CNS
# [9] = system: NCI-H226 lung
# [10] = system: MDA-MB-435
# [11] = system: BT-549 breast
# [12] = system: COLO 205 colon
# [13] = system: SF-295 CNS
# [14] = system: SR leukemia
# [15] = system: UACC-62 melanoma
# [16] = system: SK-OV-3 ovarian
# [17] = system: HOP-92 NSCLC
# [18] = system: HCC-2998 colon
# [19] = system: OVCAR-4 ovarian
# [20] = system: 786-0 renal
# [21] = system: SK-MEL-28 melanoma
# [22] = system: T-47D breast
# [23] = system: MCF7 breast
# [24] = system: MDA-MB-231 breast
# [25] = system: U251 CNS
# [26] = system: RXF 393 renal
# [27] = system: CCRF-CEM leukemia
# [28] = system: TK-10 renal
# [29] = system: SK-MEL-5 melanoma
# [30] = system: M14 melanoma
# [31] = system: IGROV1 ovarian
# [32] = system: EKVX NSCLC
# [33] = system: SK-MEL-2 melanoma
# [34] = system: NCI-H460 lung
# [35] = system: KM12 colon
# [36] = system: HCT-15 colon
# [37] = system: RPMI-8226 leukemia
# [38] = system: NCI/ADR-RES ovarian
# [39] = system: SW-620 colon
# [40] = system: PC-3 prostate
# [41] = system: NCI-H522 lung
# [42] = system: HOP-62 NSCLC
# [43] = system: MALME-3M melanoma
# [44] = system: SF-268 CNS
# [45] = system: NCI-H23 lung
# [46] = system: ACHN renal
# [47] = system: MOLT-4 leukemia
# [48] = system: A498 renal
# [49] = system: HCT-116 colon
# [50] = system: CAKI-1 renal
# [51] = system: UO-31 renal
# [52] = system: OVCAR-5 ovarian
# [53] = system: SF-539 CNS
# [54] = system: HS 578T breast
# [55] = system: SNB-75 CNS
# [56] = system: SN12C renal
# [57] = system: DU-145 prostate
structure (smiles),measurement,setting,value
O=C(NCCN1CCCC1)c1ccc(-c2nc3ccc4[nH]ncc4c3c3c2CCCC3)cc1,GI50,[1],1050 nM
same,TGI,[1],2440 nM
same,GI50,[2],798 nM
same,TGI,[2],3160 nM
same,GI50,[3],978 nM
same,TGI,[3],2320 nM
same,GI50,[4],1090 nM
same,TGI,[4],5540 nM
same,GI50,[5],760 nM
same,TGI,[5],3880 nM
same,GI50,[6],996 nM
same,TGI,[6],3510 nM
same,GI50,[7],622 nM
same,TGI,[7],1360 nM
same,GI50,[8],1130 nM
same,TGI,[8],5060 nM
same,GI50,[9],716 nM
same,TGI,[9],5250 nM
same,GI50,[10],654 nM
same,TGI,[10],3890 nM
same,GI50,[11],384 nM
same,TGI,[11],1160 nM
same,GI50,[12],625 nM
same,TGI,[12],1490 nM
same,GI50,[13],1060 nM
same,TGI,[13],4160 nM
same,GI50,[14],94.1 nM
same,TGI,[14],1900 nM
same,GI50,[15],1200 nM
same,TGI,[15],5600 nM
same,GI50,[16],232 nM
same,TGI,[16],2170 nM
same,GI50,[17],99.7 nM
same,TGI,[17],864 nM
same,GI50,[18],870 nM
same,TGI,[18],2820 nM
same,GI50,[19],1050 nM
same,TGI,[19],5080 nM
same,GI50,[20],580 nM
same,TGI,[20],1350 nM
same,GI50,[21],919 nM
same,TGI,[21],2680 nM
same,GI50,[22],1070 nM
same,TGI,[22],6100 nM
same,GI50,[23],807 nM
same,TGI,[23],4150 nM
same,GI50,[24],796 nM
same,TGI,[24],2430 nM
same,GI50,[25],717 nM
same,TGI,[25],2250 nM
same,GI50,[26],241 nM
same,TGI,[26],955 nM
same,GI50,[27],497 nM
same,TGI,[27],3270 nM
same,GI50,[28],443 nM
same,TGI,[28],7360 nM
same,GI50,[29],1100 nM
same,TGI,[29],2530 nM
same,GI50,[30],729 nM
same,TGI,[30],1550 nM
same,GI50,[31],351 nM
same,TGI,[31],4060 nM
same,GI50,[32],850 nM
same,TGI,[32],5150 nM
same,GI50,[33],726 nM
same,TGI,[33],1880 nM
same,GI50,[34],628 nM
same,TGI,[34],1570 nM
same,GI50,[35],237 nM
same,TGI,[35],2910 nM
same,GI50,[36],1910 nM
same,TGI,[36],7430 nM
same,GI50,[37],871 nM
same,TGI,[37],2270 nM
same,GI50,[38],10700 nM
same,TGI,[38],50000 nM
same,GI50,[39],607 nM
same,TGI,[39],3140 nM
same,GI50,[40],682 nM
same,TGI,[40],2770 nM
same,GI50,[41],289 nM
same,TGI,[41],1050 nM
same,GI50,[42],497 nM
same,TGI,[42],2140 nM
same,GI50,[43],769 nM
same,TGI,[43],1650 nM
same,GI50,[44],703 nM
same,TGI,[44],1790 nM
same,GI50,[45],802 nM
same,TGI,[45],2460 nM
same,GI50,[46],1070 nM
same,TGI,[46],5890 nM
same,GI50,[47],486 nM
same,TGI,[47],2640 nM
same,GI50,[48],193 nM
same,TGI,[48],911 nM
same,GI50,[49],252 nM
same,TGI,[49],2020 nM
same,GI50,[50],199 nM
same,TGI,[50],4380 nM
same,GI50,[51],1400 nM
same,TGI,[51],6340 nM
same,GI50,[52],1390 nM
same,TGI,[52],4440 nM
same,GI50,[53],515 nM
same,TGI,[53],1170 nM
same,GI50,[54],189 nM
same,TGI,[54],1390 nM
same,GI50,[55],259 nM
same,TGI,[55],1850 nM
same,GI50,[56],882 nM
same,TGI,[56],4460 nM
same,GI50,[57],677 nM
same,TGI,[57],5340 nM
O=c1c2cc(-c3ccc(F)cc3F)ccc2n(Nc2ccccc2)c(=O)n1-c1cccc(C(F)(F)F)c1,GI50,[1],963 nM
same,TGI,[1],3820 nM
same,GI50,[2],1230 nM
same,TGI,[2],3720 nM
same,GI50,[4],2960 nM
same,TGI,[4],12700 nM
same,GI50,[5],717 nM
same,TGI,[5],> 100000 nM
same,GI50,[6],2840 nM
same,TGI,[6],7740 nM
same,GI50,[7],1530 nM
same,TGI,[7],3120 nM
same,GI50,[8],931 nM
same,TGI,[8],> 100000 nM
same,GI50,[9],1320 nM
same,TGI,[9],3420 nM
same,GI50,[10],1520 nM
same,TGI,[10],5040 nM
same,GI50,[11],1120 nM
same,TGI,[11],2530 nM
same,GI50,[12],1800 nM
same,TGI,[12],3270 nM
same,GI50,[13],1830 nM
same,TGI,[13],3820 nM
same,GI50,[14],1110 nM
same,TGI,[14],4530 nM
same,GI50,[15],337 nM
same,TGI,[15],1410 nM
same,GI50,[16],1270 nM
same,TGI,[16],3010 nM
same,GI50,[17],190 nM
same,TGI,[17],679 nM
same,GI50,[18],2550 nM
same,TGI,[18],6840 nM
same,GI50,[19],2670 nM
same,TGI,[19],> 100000 nM
same,GI50,[20],1860 nM
same,TGI,[20],3830 nM
same,GI50,[21],1280 nM
same,TGI,[21],4690 nM
same,GI50,[22],1400 nM
same,TGI,[22],5370 nM
same,GI50,[23],1810 nM
same,TGI,[23],7440 nM
same,GI50,[24],1780 nM
same,TGI,[24],5620 nM
same,GI50,[25],1740 nM
same,TGI,[25],10300 nM
same,GI50,[26],1200 nM
same,TGI,[26],2840 nM
same,GI50,[27],1970 nM
same,TGI,[27],9760 nM
same,GI50,[28],3980 nM
same,TGI,[28],8500 nM
same,GI50,[29],354 nM
same,TGI,[29],1350 nM
same,GI50,[30],1650 nM
same,TGI,[30],4170 nM
same,GI50,[31],1910 nM
same,TGI,[31],13300 nM
same,GI50,[32],2350 nM
same,TGI,[32],7910 nM
same,GI50,[33],532 nM
same,TGI,[33],2100 nM
same,GI50,[34],775 nM
same,TGI,[34],4390 nM
same,GI50,[35],2170 nM
same,TGI,[35],5660 nM
same,GI50,[36],812 nM
same,TGI,[36],2550 nM
same,GI50,[37],460 nM
same,TGI,[37],2570 nM
same,GI50,[38],1910 nM
same,TGI,[38],7740 nM
same,GI50,[39],1510 nM
same,TGI,[39],3550 nM
same,GI50,[40],1350 nM
same,TGI,[40],5190 nM
same,GI50,[41],440 nM
same,TGI,[41],2410 nM
same,GI50,[42],1800 nM
same,TGI,[42],4110 nM
same,GI50,[43],1500 nM
same,TGI,[43],5050 nM
same,GI50,[44],1700 nM
same,TGI,[44],7980 nM
same,GI50,[45],1060 nM
same,TGI,[45],4320 nM
same,GI50,[46],1810 nM
same,TGI,[46],5310 nM
same,GI50,[47],1790 nM
same,TGI,[47],5660 nM
same,GI50,[48],358 nM
same,TGI,[48],1250 nM
same,GI50,[49],1030 nM
same,TGI,[49],2340 nM
same,GI50,[50],1510 nM
same,TGI,[50],4370 nM
same,GI50,[51],1980 nM
same,TGI,[51],5960 nM
same,GI50,[52],3150 nM
same,TGI,[52],56300 nM
same,GI50,[53],1570 nM
same,TGI,[53],5640 nM
same,GI50,[54],1060 nM
same,TGI,[54],4200 nM
same,GI50,[55],1400 nM
same,TGI,[55],4860 nM
same,GI50,[56],1000 nM
same,TGI,[56],5010 nM
same,GI50,[57],2560 nM
same,TGI,[57],61700 nM
